Measurements as given in US20240074996A1, “C5 KETONE COMPOSITIONS AND RELATED METHODS FOR TREATING METABOLIC DYSFUNCTION” (Keto Innovations, LLC, priority 2018, published 2024).
Read-outs that look alike come from different tables or passages of the source.

Columns and labels:
[1] = cited from earlier work
[2] = Visual analog scale of focus after BHP or BKP (Example 1); assay type: in vivo, human; conditions: scale 1-10, 10 g oral, 12 h fast
Protocol: (§1) Two (2) healthy, male subjects reported to the laboratory following a 12 hour overnight fast. Subjects were instructed to randomly consume either 10 grams of BHP or 10 grams BKP dissolved in 12 ounces of water. Subjects were then monitored for 150 minutes following drinking the mixture. Blood glucose, ketones, and visual analog scales (VAS) of well-being, energy, and focus were taken at 0, 30, 60, 90, 120, and 150 minutes. VAS scales consisted of a continuum of numbers from 1-10 with 1 being extremely low and 10 being extremely high.

[3] = Blood glucose after oral BHP or BKP (Example 1); assay type: in vivo, human; conditions: 10 g oral in water, 12 h fast
Protocol: as §1
(§2) Blood ketones were measured via finger prick using an Abbott Precision device which determines mMol of BHB. Blood glucose was measured using Abbott Precision glucose strips and was measured in mg/dL.

[4] = Blood ketones (BHB, Abbott Precision) after oral BHP or BKP (Example 1); assay type: in vivo, human; conditions: 10 g oral in water, 12 h fast
Protocol: as §1, §2

[5] = Visual analog scale of well-being after BHP or BKP (Example 1); assay type: in vivo, human; conditions: scale 1-10, 10 g oral, 12 h fast
Protocol: as §1

[6] = Visual analog scale of energy after BHP or BKP (Example 1); assay type: in vivo, human; conditions: scale 1-10, 10 g oral, 12 h fast
Protocol: as §1

[7] = Borg Rating of Perceived Exertion during cycling exercise (Example 2); assay type: in vivo, human; conditions: 10 grams
Source text: The purpose of this experiment was to see if C5 ketones could lower exertion during moderate and high intensity cycling exercise. Five (5) college aged males were given a placebo or BKP (10 grams) prior to and during 2-minute low, moderate and high intensity cycling bouts. […] Perceived exertion is how hard one feels like the body is working.

For `CC[C@@H](O)CC(=O)O` [(R)-B-hydroxypentanoate], the “Utilisation after intravenous administration” value ([1]; nondiabetic animals, intravenous, doses corresponding to 75% of the energy requirement (Leclerc et al 1995)) is listed as “very rapidly used”.
In the case of `CCC(=O)CC(=O)O` [BKP, β-ketopentanoate], the “VAS of Focus” value ([2]; Combined, 0 min.) is reported as 5.5, the “VAS of Focus” value ([2]; Combined, 30 min.) is reported as 5.5 and the “VAS of Focus” value ([2]; Combined, 60 min.) is reported as 6. The “VAS of Focus” value ([2]; Combined, 90 min.) was 6.5, the “VAS of Focus” value ([2]; Combined, 120 min.) was 7 and the “VAS of Focus” value ([2]; Combined, 150 min.) was 7. For the same compound, the “VAS of Focus” value ([2]; Subject 1, 0 min.) was 6, the “VAS of Focus” value ([2]; Subject 1, 30 min.) was 5 and the “VAS of Focus” value ([2]; Subject 1, 60 min.) was 7. The “VAS of Focus” value ([2]; Subject 1, 90 min.) was 7, the “VAS of Focus” value ([2]; Subject 1, 120 min.) was 7 and the “VAS of Focus” value ([2]; Subject 1, 150 min.) was 8. For the same compound, the “VAS of Focus” value ([2]; Subject 2, 0 min.) was 5, the “VAS of Focus” value ([2]; Subject 2, 30 min.) was 6 and the “VAS of Focus” value ([2]; Subject 2, 60 min.) was 5. For the same compound, the “VAS of Focus” value ([2]; Subject 2, 90 min.) was 6, the “VAS of Focus” value ([2]; Subject 2, 120 min.) was 7 and the “VAS of Focus” value ([2]; Subject 2, 150 min.) was 6. For the same compound, the Blood glucose levels ([3]; Combined, 0 min.) was 89.5 mg/dL, the Blood glucose levels ([3]; Combined, 30 min.) was 87.5 mg/dL and the Blood glucose levels ([3]; Combined, 60 min.) was 81 mg/dL. For the same compound, the Blood glucose levels ([3]; Combined, 90 min.) was 79.5 mg/dL, the Blood glucose levels ([3]; Combined, 120 min.) was 87.5 mg/dL and the Blood glucose levels ([3]; Combined, 150 min.) was 84 mg/dL. The Blood glucose levels ([3]; Subject 1, 0 min.) was 88 mg/dL, the Blood glucose levels ([3]; Subject 1, 30 min.) was 84 mg/dL and the Blood glucose levels ([3]; Subject 1, 60 min.) was 79 mg/dL. For the same compound, the Blood glucose levels ([3]; Subject 1, 90 min.) was 83 mg/dL, the Blood glucose levels ([3]; Subject 1, 120 min.) was 85 mg/dL and the Blood glucose levels ([3]; Subject 1, 150 min.) was 87 mg/dL. For the same compound, the Blood glucose levels ([3]; Subject 2, 0 min.) was 91 mg/dL, the Blood glucose levels ([3]; Subject 2, 30 min.) was 91 mg/dL and the Blood glucose levels ([3]; Subject 2, 60 min.) was 83 mg/dL. For the same compound, the Blood glucose levels ([3]; Subject 2, 90 min.) was 76 mg/dL, the Blood glucose levels ([3]; Subject 2, 120 min.) was 90 mg/dL and the Blood glucose levels ([3]; Subject 2, 150 min.) was 81 mg/dL. The Blood ketone levels ([4]; Combined, 0 min.) was 0.1 mmol, the Blood ketone levels ([4]; Combined, 30 min.) was 0.1 mmol and the Blood ketone levels ([4]; Combined, 60 min.) was 0.2 mmol. It also gave a Blood ketone levels ([4]; Combined, 90 min.) of 0.1 mmol, a Blood ketone levels ([4]; Combined, 120 min.) of 0.1 mmol and a Blood ketone levels ([4]; Combined, 150 min.) of 0.1 mmol. For the same compound, the Blood ketone levels ([4]; Subject 1, 0 min.) was 0.1 mmol, the Blood ketone levels ([4]; Subject 1, 30 min.) was 0.1 mmol and the Blood ketone levels ([4]; Subject 1, 60 min.) was 0.2 mmol. For the same compound, the Blood ketone levels ([4]; Subject 1, 90 min.) was 0.1 mmol, the Blood ketone levels ([4]; Subject 1, 120 min.) was 0.1 mmol and the Blood ketone levels ([4]; Subject 1, 150 min.) was 0.1 mmol. It also gave a Blood ketone levels ([4]; Subject 2, 0 min.) of 0.1 mmol, a Blood ketone levels ([4]; Subject 2, 30 min.) of 0.1 mmol and a Blood ketone levels ([4]; Subject 2, 60 min.) of 0.2 mmol. It also gave a Blood ketone levels ([4]; Subject 2, 90 min.) of 0.1 mmol, a Blood ketone levels ([4]; Subject 2, 120 min.) of 0.1 mmol and a Blood ketone levels ([4]; Subject 2, 150 min.) of 0.1 mmol. The “VAS of Well-Being” value ([5]; Combined, 0 min.) was 6.5, the “VAS of Well-Being” value ([5]; Combined, 30 min.) was 6.5 and the “VAS of Well-Being” value ([5]; Combined, 60 min.) was 7.5. For the same compound, the “VAS of Well-Being” value ([5]; Combined, 90 min.) was 7.5, the “VAS of Well-Being” value ([5]; Combined, 120 min.) was 8 and the “VAS of Well-Being” value ([5]; Combined, 150 min.) was 8. The “VAS of Well-Being” value ([5]; Subject 1, 0 min.) was 7, the “VAS of Well-Being” value ([5]; Subject 1, 30 min.) was 7 and the “VAS of Well-Being” value ([5]; Subject 1, 60 min.) was 9. For the same compound, the “VAS of Well-Being” value ([5]; Subject 1, 90 min.) was 9, the “VAS of Well-Being” value ([5]; Subject 1, 120 min.) was 9 and the “VAS of Well-Being” value ([5]; Subject 1, 150 min.) was 9. The “VAS of Well-Being” value ([5]; Subject 2, 0 min.) was 6, the “VAS of Well-Being” value ([5]; Subject 2, 30 min.) was 6 and the “VAS of Well-Being” value ([5]; Subject 2, 60 min.) was 6. The “VAS of Well-Being” value ([5]; Subject 2, 90 min.) was 6, the “VAS of Well-Being” value ([5]; Subject 2, 120 min.) was 7 and the “VAS of Well-Being” value ([5]; Subject 2, 150 min.) was 7. The “VAS of Energy” value ([6]; Combined, 0 min.) was 6, the “VAS of Energy” value ([6]; Combined, 30 min.) was 6.5 and the “VAS of Energy” value ([6]; Combined, 60 min.) was 7. For the same compound, the “VAS of Energy” value ([6]; Combined, 90 min.) was 7, the “VAS of Energy” value ([6]; Combined, 120 min.) was 7.5 and the “VAS of Energy” value ([6]; Combined, 150 min.) was 8. For the same compound, the “VAS of Energy” value ([6]; Subject 1, 0 min.) was 7, the “VAS of Energy” value ([6]; Subject 1, 30 min.) was 7 and the “VAS of Energy” value ([6]; Subject 1, 60 min.) was 7. For the same compound, the “VAS of Energy” value ([6]; Subject 1, 90 min.) was 8, the “VAS of Energy” value ([6]; Subject 1, 120 min.) was 8 and the “VAS of Energy” value ([6]; Subject 1, 150 min.) was 9. For the same compound, the “VAS of Energy” value ([6]; Subject 2, 0 min.) was 5, the “VAS of Energy” value ([6]; Subject 2, 30 min.) was 6 and the “VAS of Energy” value ([6]; Subject 2, 60 min.) was 7. The “VAS of Energy” value ([6]; Subject 2, 90 min.) was 6, the “VAS of Energy” value ([6]; Subject 2, 120 min.) was 7 and the “VAS of Energy” value ([6]; Subject 2, 150 min.) was 7. The “Utilisation after intravenous administration” value ([1]; in vivo, iv) was “very rapidly used”, the “Metabolism and tolerance in animals” value ([1]; in vivo) was “well metabolized in animals without apparent intolerance” and the “Rating of Perceived Exertion (RPE) High Intensity” value ([7]; college aged males, 2-minute cycling bout, High Intensity) was 17 ± 2. The “Rating of Perceived Exertion (RPE) Low Intensity” value ([7]; college aged males, 2-minute cycling bout, Low Intensity) was 9 ± 1, the “Rating of Perceived Exertion (RPE) Moderate Intensity” value ([7]; college aged males, 2-minute cycling bout, Moderate Intensity) was 13 ± 2 and the “Rating of Perceived Exertion (RPE) 30 min.-Post” value ([7]; college aged males, cycling, 30 min.-Post) was 8 ± 1. The “Rating of Perceived Exertion (RPE) Baseline” value ([7]; college aged males, cycling, Baseline) was 7 ± 1 and the “Perceived exertion compared to a placebo” value ([7]; moderate and high intensity cycling) was “lower perceived exertion at both moderate and high intensity exercise”.
